Square brackets hold non-standard residues; d marks the D form. Peptide text beside a SMILES is read from it. * marks the point of attachment. Tos = Cc1ccc(S(=O)(=O)*)cc1; dΔPro = O=C(O)[C@H]1C=CCN1
Legend:
Format in all cases: biochemical
thrombin = target: T1, thrombin (Homo sapiens, UniProt P00734); assay: Inhibition of thrombin; conditions: Table III; 10 uM; read-out: Thrombin % I @ 10 uM
T1 construct: purchased Sigma Chem. Co. T-7009

α-chymotrypsin = target: T2, α-chymotrypsin (Bos taurus, UniProt P00766); assay: Inhibition of α-chymotrypsin; conditions: Table III; 10 uM; read-out: Chymotrypsin % I @ 10 uM
T2 construct: purchased Sigma Chem. Co. C-3142
In short: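 Enzyme added to inhibitor first, then reaction started with substrate; no calcium activation needed as enzyme is constitutively active. Fluorogenic substrate hydrolysis read every 5 min up to 30 min ([…]).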

cathepsin L = target: T3, cathepsin L (Homo sapiens, UniProt P07711); assay: Inhibition of cathepsin L; conditions: Table III; 1 uM; read-out: Cat L % I @ 1 uM
T3 construct: purchased Calbiochem 219402
Experimental: (§1) Additionally,the order of reagents added to the plate was altered because both enzymes are constitutively active. Following inhibitor addition to the plates, appropriate 2× concentrated stock dilutions of the enzyme preparations were made in assay buffer and 100 μl added to each well. The assay was initiated by addition of 100 μl of 2× concentrated stock dilution of substrate in assay buffer.

[1] = target: T4, Recombinant human calpain I (Homo sapiens, UniProt P07384); assay: Inhibition of calpain I activity; conditions: Table III
T4 construct: made in house
T4 sequence (P07384 1-714): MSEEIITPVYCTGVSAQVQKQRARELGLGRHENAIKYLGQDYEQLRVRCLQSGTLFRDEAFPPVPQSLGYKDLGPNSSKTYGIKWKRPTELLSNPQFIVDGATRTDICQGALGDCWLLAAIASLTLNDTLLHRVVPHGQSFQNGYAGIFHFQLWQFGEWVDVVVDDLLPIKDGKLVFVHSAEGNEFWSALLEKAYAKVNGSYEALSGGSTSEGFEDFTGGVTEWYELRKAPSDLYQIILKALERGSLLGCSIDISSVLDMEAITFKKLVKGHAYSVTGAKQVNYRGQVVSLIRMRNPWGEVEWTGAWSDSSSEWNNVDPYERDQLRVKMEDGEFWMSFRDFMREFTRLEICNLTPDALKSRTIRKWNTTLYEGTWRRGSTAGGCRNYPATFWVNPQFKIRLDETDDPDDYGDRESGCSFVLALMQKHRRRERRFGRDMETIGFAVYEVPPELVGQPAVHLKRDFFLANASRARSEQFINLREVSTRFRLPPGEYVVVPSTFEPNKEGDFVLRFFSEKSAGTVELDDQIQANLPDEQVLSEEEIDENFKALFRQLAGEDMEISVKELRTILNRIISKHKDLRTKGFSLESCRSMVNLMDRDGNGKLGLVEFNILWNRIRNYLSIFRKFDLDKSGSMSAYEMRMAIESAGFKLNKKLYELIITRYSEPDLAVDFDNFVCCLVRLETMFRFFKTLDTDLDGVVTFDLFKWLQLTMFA

cathepsin B = target: T5, cathepsin B (Homo sapiens, UniProt P07858); assay: Inhibition of cathepsin B; conditions: Table III; 1 uM; read-out: Cat B % I @ 1 uM
T5 construct: purchased Calbiochem 219364
Experimental: as §1

T3 sequence (P07711 114-288 limits assumed): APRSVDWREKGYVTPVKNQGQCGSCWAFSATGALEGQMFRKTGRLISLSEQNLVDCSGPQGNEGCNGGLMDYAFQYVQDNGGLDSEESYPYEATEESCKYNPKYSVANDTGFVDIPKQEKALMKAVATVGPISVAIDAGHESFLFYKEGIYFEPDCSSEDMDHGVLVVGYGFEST
T3 sequence (P07711 292-333 limits assumed): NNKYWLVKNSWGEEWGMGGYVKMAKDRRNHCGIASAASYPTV

| Compound | inhibition at 10 µM (thrombin) [%] | inhibition at 10 µM (α-chymotrypsin) [%] | inhibition at 1 µM (cathepsin L) [%] | inhibition at 0.1 µM [1] [%] | inhibition at 1 µM (cathepsin B) [%] | IC50 [1] [nM] |
| --- | --- | --- | --- | --- | --- | --- |
| Cc1ccc(S(=O)(=O)O[C@H]2C[C@H](C(=O)N[C@H](C=O)Cc3ccccc3)N(S(=O)(=O)c3ccccc3)C2)cc1 [Compound 113] | 0 | 0 | 94 | 11 | 47 | – |
| Cc1ccc(S(=O)(=O)N2C[C@@H](N=[N+]=[N-])C[C@@H]2C(=O)N[C@H](C=O)Cc2ccccc2)cc1 [Compound 114] | 3 | 9 | 100 | 85 | 24 | – |
| Cc1ccc(S(=O)(=O)N2CCC[C@@H]2C(=O)N[C@H](C=O)Cc2ccccc2)cc1 [Compound 120] (Tos-[dP]-Phe-aldehyde) | 0 | 12 | 65 | 87 | 50 | 14 |
| Cc1ccc(S(=O)(=O)O[C@@H]2C[C@H](C(=O)N[C@H](C=O)Cc3ccccc3)N(S(=O)(=O)c3ccc(C)cc3)C2)cc1 [Compound 121] | 3 | 18 | 17 | 28 | 83 | – |
| CS(=O)(=O)N[C@H](COCc1ccccc1)C(=O)N[C@H](C=O)CCCCNS(=O)(=O)c1ccccc1 [Compound 122] | 0 | 13 | 100 | 98 | 100 | 3 |
| CCNC(=O)OC[C@H](Cc1ccccc1)NC(=O)[C@H]1CCCN1S(=O)(=O)c1ccc(C)cc1 [Compound 123] | 0 | 2 | 14 | 7 | 16 | – |
| CS(=O)(=O)N[C@H](COCc1ccccc1)C(=O)N[C@H]1CCCCNC1=O [Compound 126] | 0 | 6 | 16 | 5 | 2 | – |
| CC(C)(C)OC(=O)N1CCCC[C@H](NC(=O)[C@@H](COCc2ccccc2)N(C(=O)OC(C)(C)C)S(C)(=O)=O)C1=O [Compound 127] | 0 | 1 | 7 | 6 | 36 | – |
| Cc1ccc(S(=O)(=O)N2C[C@@H](C#N)C[C@@H]2C(=O)N[C@H](C=O)Cc2ccccc2)cc1 [Compound 129] | 1 | 6 | 100 | 73 | 64 | – |
| Cc1ccc(S(=O)(=O)N2CC=C[C@@H]2C(=O)N[C@H](C=O)Cc2ccccc2)cc1 [Compound 130] (Tos-[dΔPro]-Phe-aldehyde) | 9 | 0 | 97 | 90 | 62 | 10 |
| CS(=O)(=O)N[C@H](COCc1ccccc1)C(=O)N[C@@H](Cc1ccccc1)C1N(c2ccccc2)CCN1c1ccccc1 [Compound 132] | 0 | 0 | 100 | 63 | 78 | – |

Now from value to molecule:

| inhibition at 10 µM (thrombin) [%] | inhibition at 10 µM (α-chymotrypsin) [%] | inhibition at 1 µM (cathepsin L) [%] | inhibition at 0.1 µM [1] [%] | inhibition at 1 µM (cathepsin B) [%] | IC50 [1] [nM] | Compound |
| --- | --- | --- | --- | --- | --- | --- |
| 0 | 0 | 94 | 0 | 47 | – | CS(=O)(=O)N[C@H](COCc1ccccc1)C(=O)N[C@H](C=NNC(N)=O)Cc1ccccc1 [Compound 115] |
| 0 | 0 | 100 | 4 | 96 | – | C[N+]([O-])=C[C@H](Cc1ccccc1)NC(=O)[C@@H](COCc1ccccc1)NS(C)(=O)=O [Compound 116] |
| 0 | 0 | 100 | 21 | 95 | – | CS(=O)(=O)N[C@H](COCc1ccccc1)C(=O)N[C@H](C=[N+]([O-])Cc1ccccc1)Cc1ccccc1 [Compound 117] |
| 0 | 8 | 99 | 31 | 33 | – | CS(=O)(=O)N[C@H](COCc1ccccc1)C(=O)N[C@H](C=NO)Cc1ccccc1 [Compound 118] |
| 0 | 3 | 98 | 19 | 68 | – | CON=C[C@H](Cc1ccccc1)NC(=O)[C@@H](COCc1ccccc1)NS(C)(=O)=O [Compound 119] |
| 2 | 0 | 17 | 20 | 27 | – | CS(=O)(=O)N[C@H](COCc1ccccc1)C(=O)N[C@@H](Cc1ccccc1)C(O)CCc1ccccc1 (stereo partly shown) [Compound 124] |
| 4 | 0 | 39 | 0 | 47 | – | CS(=O)(=O)N[C@H](COCc1ccccc1)C(=O)N[C@@H](Cc1ccccc1)C(=O)CCc1ccccc1 [Compound 125] |
| 0 | 1 | 100 | 89 | 99 | 8 | CS(=O)(=O)N[C@H](COCc1ccccc1)C(=O)N[C@@H](Cc1ccccc1)C(O)S(=O)(=O)O (stereo partly shown) [Compound 128] |
| 11 | 0 | 55 | 6 | 21 | – | CS(=O)(=O)N[C@H](COCc1ccccc1)C(=O)N[C@@H](Cc1ccccc1)C1OCCS1 (stereo partly shown) [Compound 131] |
| 0 | 1 | 100 | 93 | 100 | 13 | CN1CCN(C)C1[C@H](Cc1ccccc1)NC(=O)[C@@H](COCc1ccccc1)NS(C)(=O)=O [Compound 133] |
| 0 | 10 | 98 | 0 | 19 | – | CCOC(OCC)[C@H](Cc1ccccc1)NC(=O)[C@@H](COCc1ccccc1)NS(C)(=O)=O [Compound 134] |
| 0 | 4 | 100 | 91 | 98 | 11 | CS(=O)(=O)N[C@H](COCc1ccccc1)C(=O)N[C@@H](Cc1ccccc1)C(O)OCc1ccccc1 (stereo partly shown) [Compound 135] |
